Reference: ChEMBL document CHEMBL6134849, “A Water-Soluble Aggregation-Induced Emission Photosensitizer with Intrinsic Antibacterial Activity as an Antiplanktonic and Antibiofilm Therapeutic Agent” (J Med Chem, 2025)
Activity calls are given as the source filed them. The calls are words filed in the database; no cut-off is given here.

What was measured:
[1] = Induction of type-I ROS generation in PBS assessed as increase in hydroxyl radical by measuring increase in HPF fluorescence intensity at 10 uM irradiated with 660 nm 60 mW/cm2 light for 15 mins by HPF probe based plate reader analysis; format: functional
[2] = Induction of type-I ROS generation in PBS assessed as increase in singlet oxygen by measuring increase in SOSG fluorescence intensity at 10 uM irradiated with 660 nm 60 mW/cm2 light for 15 mins by SOSG probe based plate reader analysis; format: functional
Lipopolysaccharide (LPS) = assay: Displacement of BODIPY-TR Cadaverine from Pseudomonas aeruginosa lipopolysaccharide (LPS) assessed as increase in fluorescence intensity at 10 uM incubated for 30 mins by fluorescence based plate reader analysis
[3] = Induction of type-II ROS generation in PBS assessed as increase in nonspecific ROS by measuring increase in DHR123 fluorescence intensity at 10 uM irradiated with 660 nm 60 mW/cm2 light for 15 mins by DHR123 probe based plate reader analysis; format: functional
[4] = Induction of type-I ROS generation in PBS assessed as increase in nonspecific ROS by measuring increase in DHR123 fluorescence intensity at 10 uM irradiated with 660 nm 60 mW/cm2 light for 15 mins by DHR123 probe based plate reader analysis; format: functional
[5] = Induction of […] ROS generation in PBS assessed as increase in hydroxyl radical by measuring increase in HPF fluorescence intensity at 10 uM irradiated with 660 nm 60 mW/cm2 light for 15 mins by HPF probe based plate reader analysis; format: functional
[6] = Induction of type-II ROS generation in PBS assessed as increase in singlet oxygen by measuring increase in SOSG fluorescence intensity at 10 uM irradiated with 660 nm 60 mW/cm2 light for 15 mins by SOSG probe based plate reader analysis; format: functional
Lipoteichoic acid = assay: Displacement of BODIPY-TR Cadaverine from Staphylococcus aureus lipoteichoic acid (LTA) assessed as increase in fluorescence intensity at 10 uM incubated for 30 mins by fluorescence based plate reader analysis

Activity (Lipopolysaccharide (LPS)): Active | Activity (Lipoteichoic acid): Active
Structure (SMILES): CC[n+]1c(/C=C/c2ccc(-c3ccc(N(c4ccc(OCCC[N+](C)(C)C)cc4)c4ccc(OCCC[N+](C)(C)C)cc4)cc3)s2)sc2ccccc21
Activity [1]: Active | Activity [2]: Active | Activity [3]: Active | Activity [4]: Active | Activity [5]: Active | Activity [6]: Active
